Key:
Test in all cases: relative viability (nuclei count vs DMSO), 5 days (fraction); higher = more cells survive
[1] = system: BEN
Summary of the method: (§1)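 Lung cancer cell lines in 1536-well plates were dosed by pin tool the day after seeding, either with one drug alone or with a fixed anchor-drug dose plus five library-drug doses (not always all listed) in √10 steps. After 5 days, cells were fixed and their nuclei stained in one step (final 0.05% Triton X-100, 1% formaldehyde, 1 ug/ml Hoechst), then counted on 4× images. Relative viability is the nuclei count in treated wells divided by that in vehicle wells. Values are medians of duplicate plates.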

[2] = system: NCI-H1915
Summary of the method: as §1

[3] = system: CAL-12T
Summary of the method: as §1

[4] = system: NCI-H2126
Summary of the method: as §1

[5] = system: LOU-NH91
Summary of the method: as §1

[6] = system: NCI-H838
Summary of the method: as §1

[7] = system: SW 1573
Summary of the method: as §1

[8] = system: HCC-78
Summary of the method: as §1

[9] = system: NCI-H1651
Summary of the method: as §1

[10] = system: HOP-62
Summary of the method: as §1

[11] = system: NCI-H3122
Summary of the method: as §1

[12] = system: 201T
Summary of the method: as §1

[13] = system: NCI-H1355
Summary of the method: as §1

[14] = system: NCI-H1563
Summary of the method: as §1

[15] = system: NCI-H650
Summary of the method: as §1

[16] = system: NCI-H2347
Summary of the method: as §1

[17] = system: SK-LU-1
Summary of the method: as §1

[18] = system: LCLC-97TM1
Summary of the method: as §1

[19] = system: NCI-H322M
Summary of the method: as §1

[20] = system: NCI-H441
Summary of the method: as §1

Cc1cn(-c2cc(NC(=O)c3ccc(C)c(Nc4nccc(-c5cccnc5)n4)c3)cc(C(F)(F)F)c2)cn1 [Nilotinib] + CC(C)C[C@H](NC(=O)[C@H](Cc1ccccc1)NC(=O)c1cnccn1)B(O)O [Bortezomib] (partner 0.002 µM)
relative viability ([1]; first compound 0.001 µM): 0.782 | relative viability ([1]; first compound 0.003162 µM): 0.843 | relative viability ([1]; first compound 0.01 µM): 0.788 | relative viability ([1]; first compound 0.1 µM): 0.721 | relative viability ([2]; first compound 0.001 µM): 0.932 | relative viability ([2]; first compound 0.003162 µM): 1.17 | relative viability ([2]; first compound 0.01 µM): 1.18 | relative viability ([2]; first compound 0.03162 µM): 0.823 | relative viability ([2]; first compound 0.1 µM): 0.85 | relative viability ([3]; first compound 0.001 µM): 0.968 | relative viability ([3]; first compound 0.01 µM): 0.919 | relative viability ([3]; first compound 0.03162 µM): 0.807 | relative viability ([3]; first compound 0.1 µM): 1.19 | relative viability ([4]; first compound 0.001 µM): 1.12 | relative viability ([4]; first compound 0.003162 µM): 1.18 | relative viability ([4]; first compound 0.01 µM): 1.08 | relative viability ([4]; first compound 0.03162 µM): 1.08 | relative viability ([4]; first compound 0.1 µM): 0.624 | relative viability ([5]; first compound 0.001 µM): 0.523 | relative viability ([5]; first compound 0.003162 µM): 0.46 | relative viability ([5]; first compound 0.01 µM): 0.404 | relative viability ([5]; first compound 0.03162 µM): 0.473 | relative viability ([5]; first compound 0.1 µM): 0.524 | relative viability ([6]; first compound 0.001 µM): 0.867 | relative viability ([6]; first compound 0.003162 µM): 0.731 | relative viability ([6]; first compound 0.01 µM): 0.976 | relative viability ([6]; first compound 0.03162 µM): 0.673 | relative viability ([6]; first compound 0.1 µM): 0.709 | relative viability ([7]; first compound 0.001 µM): 1.02 | relative viability ([7]; first compound 0.003162 µM): 1.4 | relative viability ([7]; first compound 0.01 µM): 1.54 | relative viability ([7]; first compound 0.03162 µM): 0.796 | relative viability ([7]; first compound 0.1 µM): 1.09 | relative viability ([8]; first compound 0.001 µM): 0.433 | relative viability ([8]; first compound 0.003162 µM): 0.514 | relative viability ([8]; first compound 0.01 µM): 0.654 | relative viability ([8]; first compound 0.03162 µM): 0.55 | relative viability ([8]; first compound 0.1 µM): 0.518 | relative viability ([9]; first compound 0.001 µM): 0.917 | relative viability ([9]; first compound 0.003162 µM): 1.05 | relative viability ([9]; first compound 0.01 µM): 1.07 | relative viability ([9]; first compound 0.03162 µM): 0.956 | relative viability ([9]; first compound 0.1 µM): 0.653 | relative viability ([10]; first compound 0.001 µM): 0.706 | relative viability ([10]; first compound 0.003162 µM): 0.861 | relative viability ([10]; first compound 0.01 µM): 0.28 | relative viability ([10]; first compound 0.03162 µM): 0.576 | relative viability ([11]; first compound 0.003162 µM): 1.05 | relative viability ([11]; first compound 0.03162 µM): 1.03 | relative viability ([11]; first compound 0.1 µM): 0.962 | relative viability ([12]; first compound 0.001 µM): 1.12 | relative viability ([12]; first compound 0.003162 µM): 1.09 | relative viability ([12]; first compound 0.01 µM): 1.08 | relative viability ([12]; first compound 0.1 µM): 1.11 | relative viability ([13]; first compound 0.001 µM): 1.09 | relative viability ([13]; first compound 0.003162 µM): 1.52 | relative viability ([13]; first compound 0.01 µM): 1.28 | relative viability ([13]; first compound 0.03162 µM): 1.15 | relative viability ([13]; first compound 0.1 µM): 0.639 | relative viability ([14]; first compound 0.001 µM): 0.878 | relative viability ([14]; first compound 0.003162 µM): 0.84 | relative viability ([14]; first compound 0.01 µM): 0.79 | relative viability ([14]; first compound 0.03162 µM): 0.704 | relative viability ([14]; first compound 0.1 µM): 0.623 | relative viability ([15]; first compound 0.001 µM): 0.754 | relative viability ([15]; first compound 0.003162 µM): 0.76 | relative viability ([15]; first compound 0.01 µM): 0.923 | relative viability ([15]; first compound 0.03162 µM): 0.794 | relative viability ([15]; first compound 0.1 µM): 0.714 | relative viability ([16]; first compound 0.001 µM): 0.8 | relative viability ([16]; first compound 0.003162 µM): 1.08 | relative viability ([16]; first compound 0.01 µM): 1.17 | relative viability ([16]; first compound 0.03162 µM): 0.702 | relative viability ([16]; first compound 0.1 µM): 0.865 | relative viability ([17]; first compound 0.001 µM): 1.29 | relative viability ([17]; first compound 0.01 µM): 0.831 | relative viability ([17]; first compound 0.03162 µM): 1 | relative viability ([17]; first compound 0.1 µM): 0.949 | relative viability ([18]; first compound 0.001 µM): 0.454 | relative viability ([18]; first compound 0.003162 µM): 0.158 | relative viability ([18]; first compound 0.01 µM): 0.946 | relative viability ([18]; first compound 0.03162 µM): 0.295 | relative viability ([18]; first compound 0.1 µM): 0.511 | relative viability ([19]; first compound 0.001 µM): 1.27 | relative viability ([19]; first compound 0.003162 µM): 1.47 | relative viability ([19]; first compound 0.03162 µM): 1.18 | relative viability ([19]; first compound 0.1 µM): 1.39 | relative viability ([20]; first compound 0.001 µM): 0.33 | relative viability ([20]; first compound 0.003162 µM): 0.735 | relative viability ([20]; first compound 0.01 µM): 0.492 | relative viability ([20]; first compound 0.1 µM): 0.219

Reference: the supplement of paper PMC10307832
